We go through one cell line from the supplement of paper PMC10307832.

Common to all, as to assay: relative viability (nuclei count vs DMSO), 5 days (fraction); higher = more cells survive
Compound in experiment [1]: CCn1c(-c2nonc2N)nc2cnc(Oc3cccc(NC(=O)c4ccc(OCCN5CCOCC5)cc4)c3)cc21 + O=C(c1cc(Cc2n[nH]c(=O)c3ccccc23)ccc1F)N1CCN(C(=O)C2CC2)CC1 [Olaparib] (partner 8 µM)
The gist of the method:
(§1)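 Relative viability is defined as nuclei in treated wells over nuclei in vehicle wells. Duplicate plates were run and medians reported. Lung cancer cell lines in 1536-well plates were dosed by pin tool one day after seeding, with one drug or with a fixed anchor-drug dose plus five library-drug doses (not always all listed) in √10 steps, and nuclei were counted after 5 days.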

Compound in experiment [2]: CCn1c(-c2nonc2N)nc2cnc(Oc3cccc(NC(=O)c4ccc(OCCN5CCOCC5)cc4)c3)cc21 + O=C(CCCCCCC(=O)Nc1ccccc1)NO [Vorinostat] (partner 1 µM)
In outline: as §1

Compound in experiment [3]: CCC1=CN=CN=C1N2CCN(CC2)CC3=NC4=C(N3)C=C(C=C4)C(F)(F)F + Cc1nc(Nc2ncc(C(=O)Nc3c(C)cccc3Cl)s2)cc(N2CCN(CCO)CC2)n1 [Dasatinib] (partner 0.075 µM)
In outline:
as §1

Compound in experiment [4]: CCn1c(-c2nonc2N)nc2cnc(Oc3cccc(NC(=O)c4ccc(OCCN5CCOCC5)cc4)c3)cc21 + Cc1cc(Nc2cc(N3CCN(C)CC3)nc(Sc3ccc(NC(=O)C4CC4)cc3)n2)n[nH]1 [Tozasertib] (partner 0.1 µM)
The gist of the method:
as §1

On to UMC-11, for which the relative viability in experiment [1] (first compound 0.04 µM) was determined as 0.38; in experiment [1] (first compound 0.1265 µM), 0.303; in experiment [1] (first compound 0.4 µM), 0.32; in experiment [1] (first compound 1.265 µM), 0.088; in experiment [1] (first compound 4 µM), 0.185; in experiment [2] (first compound 0.04 µM), 0.427. Also, the relative viability in experiment [2] (first compound 0.1265 µM) was 0.478; in experiment [2] (first compound 0.4 µM), 0.437; in experiment [2] (first compound 1.265 µM) it was 0.152; in experiment [2] (first compound 4 µM), 0.158; in experiment [3] (first compound 0.04 µM) it was 0.531; in experiment [3] (first compound 0.1265 µM), 0.436. In addition, the relative viability was determined as 0.42 in experiment [3] (first compound 0.4 µM); 0.398 in experiment [3] (first compound 1.265 µM); 0.492 in experiment [3] (first compound 4 µM); 0.206 in experiment [4] (first compound 0.04 µM); 0.212 in experiment [4] (first compound 0.1265 µM); 0.205 in experiment [4] (first compound 0.4 µM). Moreover, the results for the relative viability in experiment [4] (first compound 1.265 µM) and in experiment [4] (first compound 4 µM) were 0.16 and 0.186, respectively.
